Patent publication US20060264419A1 (priority 2003, published 2006)

Target: T1, 5 HT2C receptor (Homo sapiens, UniProt P28335)
T1 sequence (P28335 33-458): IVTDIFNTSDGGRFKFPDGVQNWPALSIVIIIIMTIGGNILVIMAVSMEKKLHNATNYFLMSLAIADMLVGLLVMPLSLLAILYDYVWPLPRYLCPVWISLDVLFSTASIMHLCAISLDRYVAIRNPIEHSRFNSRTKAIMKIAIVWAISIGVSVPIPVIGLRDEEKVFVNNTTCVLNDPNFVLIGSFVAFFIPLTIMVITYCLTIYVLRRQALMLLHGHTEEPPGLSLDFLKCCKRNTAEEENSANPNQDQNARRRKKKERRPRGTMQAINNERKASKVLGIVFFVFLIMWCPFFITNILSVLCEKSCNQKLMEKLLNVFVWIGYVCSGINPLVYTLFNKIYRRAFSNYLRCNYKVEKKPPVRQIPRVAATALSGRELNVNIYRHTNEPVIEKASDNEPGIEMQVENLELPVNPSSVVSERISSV
Assay: affinity to the 5 HT2C receptor
Assay type: binding
Settings: not given

Point of comparison: `NCCNCc1cnn(-c2ccc(-c3ccccc3)cc2)c1-c1ccccc1F` [Example 894, N-[1-Biphenyl-4-yl-5-(2-fluorophenyl)-1H-pyrazol-4-ylmethyl]ethane-1,2-diamine], IC50 450 nM. Against it:
- CN(C)CCc1cnn(-c2ccc(-c3ccc(F)cc3)cc2)c1-c1ccccc1F [Example 890, {2-[1-(4′-Fluorobiphenyl-4-yl)-5-(2-fluoro-phenyl)-1H-pyrazol-4-yl]ethyl}dimethylamine] — 16-fold lower, 27.4 nM
- CN1CCN(Cc2cnn(-c3ccc(-c4ccsc4)cc3)c2-c2ccco2)CC1 [Example 891, 1-[5-Furan-2-yl-1-(4-thiophen-3-ylphenyl)-1H-pyrazol-4-ylmethyl]-4-methylpiperazine] — 2.1-fold lower, 210 nM
- OCCNCc1cnn(-c2ccc(-c3ccccc3)cc2)c1-c1ccccc1F [Example 892, 2-{[1-Biphenyl-4-yl-5-(2-fluorophenyl)-1H-pyrazol-4-ylmethyl]amino}ethanol] — within 1.5-fold, 420 nM
- CN1CCCN(Cc2cnn(-c3ccc(-c4ccccc4)cc3)c2-c2ccccc2F)CC1 [Example 893, 1-[1-Biphenyl-4-yl-5-(2-fluorophenyl)-1H-pyrazol-4-ylmethyl]-4-methyl-[1,4]diazepam] — 2-fold lower, 230 nM

Target: 5-HT2A receptors (Rattus norvegicus, UniProt P14842)
Sequence (P14842 whole entry): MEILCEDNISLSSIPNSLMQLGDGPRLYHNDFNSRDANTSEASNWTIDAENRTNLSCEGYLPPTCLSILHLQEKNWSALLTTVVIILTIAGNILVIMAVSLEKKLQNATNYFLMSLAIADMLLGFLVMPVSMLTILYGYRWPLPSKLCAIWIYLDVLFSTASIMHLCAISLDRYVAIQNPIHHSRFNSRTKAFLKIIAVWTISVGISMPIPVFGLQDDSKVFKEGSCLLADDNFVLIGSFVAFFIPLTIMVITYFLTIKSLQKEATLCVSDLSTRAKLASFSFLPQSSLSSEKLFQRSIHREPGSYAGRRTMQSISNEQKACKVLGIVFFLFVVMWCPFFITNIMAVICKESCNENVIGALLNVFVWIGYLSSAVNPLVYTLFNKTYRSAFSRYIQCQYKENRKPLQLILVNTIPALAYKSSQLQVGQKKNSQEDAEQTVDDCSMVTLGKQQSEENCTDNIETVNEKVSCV
Assay: in-vitro affinity to 5-HT2A receptors, displacement of [3H]ketanserine (Example A1)
Assay type: binding
Settings: read-out: HT2A IC50
Description: The 5-HT2A receptors are exposed both to [^3H]ketanserine (a substance which is known for its affinity to the receptor) and also to the test compound. The decrease in the affinity of [^3H]ketanserine to the receptor is an indication of the affinity of the test substance to the 5-HT2A receptor.

Point of comparison: `O=C(c1cnn(-c2ccc(-c3ccccc3)cc2)c1-c1ccccc1F)N1CCOCC1` [Example 1043, 1-[1-Biphenyl-4-yl-5-(2-fluorophenyl)-1H-pyrazol-4-yl]-1-morpholin-4-ylmethanone], IC50 360 nM. Against it:
- CN(C)CCc1cnn(-c2ccc(-c3ccc(F)cc3)cc2)c1-c1ccccc1F [Example 890, {2-[1-(4′-Fluorobiphenyl-4-yl)-5-(2-fluoro-phenyl)-1H-pyrazol-4-yl]ethyl}dimethylamine] — 240-fold lower, 1.5 nM
- CN1CCN(Cc2cnn(-c3ccc(-c4ccsc4)cc3)c2-c2ccco2)CC1 [Example 891, 1-[5-Furan-2-yl-1-(4-thiophen-3-ylphenyl)-1H-pyrazol-4-ylmethyl]-4-methylpiperazine] — 80-fold lower, 4.5 nM
- OCCNCc1cnn(-c2ccc(-c3ccccc3)cc2)c1-c1ccccc1F [Example 892, 2-{[1-Biphenyl-4-yl-5-(2-fluorophenyl)-1H-pyrazol-4-ylmethyl]amino}ethanol] — 69-fold lower, 5.2 nM
- CN1CCCN(Cc2cnn(-c3ccc(-c4ccccc4)cc3)c2-c2ccccc2F)CC1 [Example 893, 1-[1-Biphenyl-4-yl-5-(2-fluorophenyl)-1H-pyrazol-4-ylmethyl]-4-methyl-[1,4]diazepam] — 56-fold lower, 6.4 nM
- NCCNCc1cnn(-c2ccc(-c3ccccc3)cc2)c1-c1ccccc1F [Example 894, N-[1-Biphenyl-4-yl-5-(2-fluorophenyl)-1H-pyrazol-4-ylmethyl]ethane-1,2-diamine] — 55-fold lower, 6.5 nM
- Cc1nn(-c2ccccc2)c(C)c1CN1CCN(C(=O)C(CCC(=O)O)N2C(=O)c3ccccc3C2=O)CC1 (stereo not shown) [Example 1015] — 1.6-fold lower, 220 nM
- Cc1cccc(-c2ccc(-n3ncc(CN4CCN(C)CC4)c3-c3ccccc3F)cc2)c1 [Example 1017, 1-[5-(2-Fluorophenyl)-1-(3′-methylbiphenyl-4-yl)-1H-pyrazol-4-ylmethyl]-4-methylpiperazine] — 1.6-fold lower, 220 nM
- CCNC(=O)CN1CCN(Cc2cnn(-c3ccc(-c4ccccc4)cc3)c2-c2ccccc2F)CC1 [Example 1018, 2-{4-[1-Biphenyl-4-yl-5-(2-fluoro-phenyl)-1H-pyrazol-4-ylmethyl]piperazin-1-yl}-N-ethyl-acetamide] — 1.6-fold lower, 230 nM
- Cc1ccccc1-c1ccc(-n2ncc(CN3CCN(C)CC3)c2-c2ccccc2F)cc1 [Example 1020, 1-[5-(2-Fluorophenyl)-1-(2′-methyl-biphenyl-4-yl)-1H-pyrazol-4-ylmethyl]-4-methylpiperazine] — 1.6-fold lower, 230 nM
- Cc1cc(CNCc2cnn(-c3ccc(-c4ccccc4)cc3)c2-c2ccccc2)no1 [Example 1023, (1-Biphenyl-4-yl-5-phenyl-1H-pyrazol-4-yl-methyl)-(5-methylisoxazol-3-ylmethyl)amine] — 1.5-fold lower, 240 nM
- CCN(CC)CC1CCCCN1Cc1cnn(-c2ccc(-c3ccccc3)cc2)c1-c1ccccc1F (stereo not shown) [Example 1028, {1-[1-Biphenyl-4-yl-5-(2-fluorophenyl)-1H-pyrazol-4-ylmethyl]piperidin-2-ylmethyl}-diethylamine] — within 1.5-fold, 270 nM
- O=C(NCCO)C1CCN(Cc2cnn(-c3ccc(-c4ccccc4)cc3)c2-c2ccccc2F)CC1 [Example 1030, N-(2-Hydroxyethyl)-1-[1-biphenyl-4-yl-5-(2-fluorophenyl)-1H-pyrazol-4-ylmethyl]piperidine-4-carboxamide] — within 1.5-fold, 270 nM
- Fc1ccccc1-c1c(CN2CCN3CCc4ccccc4C3C2)cnn1-c1ccc(-c2ccccc2)cc1 (stereo not shown) [Example 1031, 2-[1-Biphenyl-4-yl-5-(2-fluorophenyl)-1H-pyrazol-4-ylmethyl]-1,3,4,6,7,11b-hexahydro-2H-pyrazino[2,1-a]isoquinoline] — within 1.5-fold, 280 nM
- OCCN1CCN(Cc2cnn(-c3ccc(-c4ccccc4)cc3)c2-c2ccccc2F)CC1 [Example 1032, 2-{4-[1-Biphenyl-4-yl-5-(2-fluoro-phenyl)-1H-pyrazol-4-ylmethyl]piperazin-1-yl}ethanol] — within 1.5-fold, 280 nM
- CCC1(O)CCN(Cc2cnn(-c3ccc(-c4ccccc4)cc3)c2-c2ccccc2F)CC1 [Example 1033, 1-[1-Biphenyl-4-yl-5-(2-fluorophenyl)-1H-pyrazol-4-ylmethyl]-4-ethylpiperidin-4-ol] — within 1.5-fold, 280 nM
- N#CCNCc1cnn(-c2ccc(-c3ccccc3)cc2)c1-c1ccccc1F [Example 1034, {[1-Biphenyl-4-yl-5-(2-fluorophenyl)-1H-pyrazol-4-ylmethyl]amino}acetonitrile] — within 1.5-fold, 280 nM
- Fc1ccccc1-c1c(CNC2CCN(Cc3ccccc3)C2)cnn1-c1ccc(-c2ccccc2)cc1 (stereo not shown) [Example 1036, (1-Benzylpyrrolidin-3-yl)-[1-biphenyl-4-yl-5-(2-fluorophenyl)-1H-pyrazol-4-ylmethyl]amine] — within 1.5-fold, 310 nM
- O=C(CN1CCN(Cc2cnn(-c3ccc(-c4ccccc4)cc3)c2-c2ccccc2F)CC1)N1CCCC1 [Example 1038, 2-{4-[1-Biphenyl-4-yl-5-(2-fluoro-phenyl)-1H-pyrazol-4-ylmethyl]piperazin-1-yl}-1-pyrrolidin-1-ylethanone] — within 1.5-fold, 311 nM
- CCN(Cc1ccccc1)Cc1cnn(-c2ccc(-c3ccccc3)cc2)c1-c1ccccc1F [Example 1039, Benzyl-[1-biphenyl-4-yl-5-(2-fluoro-phenyl)-1H-pyrazol-4-ylmethyl]ethylamine] — within 1.5-fold, 320 nM
- COc1ccc(-c2c(CN3CCN(C(C)C)CC3)cnn2-c2ccc(-c3ccc(F)cc3)cc2)cc1 [Example 1040, 1-[1-(4′-Fluorobiphenyl-4-yl)-5-(4-methoxy-phenyl)-1H-pyrazol-4-ylmethyl]-4-isopropyl-piperazine] — within 1.5-fold, 320 nM
- Fc1ccccc1-c1c(CNC2C3CNCC32)cnn1-c1ccc(-c2ccccc2)cc1 (stereo not shown) [Example 1041, (3-Azabicyclo[3.1.0]hex-6-yl)-[1-biphenyl-4-yl-5-(2-fluorophenyl)-1H-pyrazol-4-ylmethyl]-amine] — within 1.5-fold, 320 nM
- NC(=O)CN1CCN(Cc2cnn(-c3ccc(-c4ccccc4)cc3)c2-c2ccccc2F)CC1 [Example 1042, 2-{4-[1-Biphenyl-4-yl-5-(2-fluoro-phenyl)-1H-pyrazol-4-ylmethyl]piperazin-1-yl}acetamide] — the same, 360 nM
- Fc1ccc(F)c(-c2ccc(-n3ncc(CNCC4CCCO4)c3-c3ccccc3F)cc2)c1 (stereo not shown) [Example 1044, [1-(2′,5′-Difluorobiphenyl-4-yl)-5-(2-fluoro-phenyl)-1H-pyrazol-4-ylmethyl](tetrahydro-furan-2-ylmethyl)amine] — within 1.5-fold, 370 nM
- OCC(Cc1cnc[nH]1)NCc1cnn(-c2ccc(-c3ccccc3)cc2)c1-c1ccccc1F (stereo not shown) [Example 1045, 2-{[1-Biphenyl-4-yl-5-(2-fluoro-phenyl)-1H-pyrazol-4-ylmethyl]amino}-3-(3H-imidazol-4-yl)propan-1-ol] — within 1.5-fold, 370 nM
- Cc1cnc(NCc2cnn(-c3ccc(-c4ccccc4)cc3)c2-c2ccccc2F)s1 [Example 1046, [1-Biphenyl-4-yl-5-(2-fluorophenyl)-1H-pyrazol-4-ylmethyl]-(5-methylthiazol-2-yl)amine] — within 1.5-fold, 370 nM
- Fc1ccccc1-c1c(CN2CCN(Cc3ccsc3)CC2)cnn1-c1ccc(-c2ccccc2)cc1 [Example 1047, 1-[1-Biphenyl-4-yl-5-(2-fluorophenyl)-1H-pyrazol-4-ylmethyl]-4-thiophen-3-ylmethyl-piperazine] — within 1.5-fold, 380 nM
- OCc1cnn(-c2ccc(-c3ccc(F)cc3)cc2)c1-c1ccccc1Cl [Example 1048, [5-(2-Chlorophenyl)-1-(4′-fluoro-biphenyl-4-yl)-1H-pyrazol-4-yl]methanol] — within 1.5-fold, 380 nM
- CN1CCN(Cc2cnn(-c3cccc(-c4ccc(Cl)cc4)c3)c2-c2ccccc2F)CC1 [Example 1049, 1-[1-(4′-Chlorobiphenyl-3-yl)-5-(2-fluoro-phenyl)-1H-pyrazol-4-ylmethyl]-4-methyl-piperazine] — within 1.5-fold, 390 nM
- OC1CCN(Cc2cnn(-c3ccc(C(F)(F)F)cn3)c2-c2ccccc2F)C1 (stereo not shown) [Example 1050, 1-[5-(2-Fluorophenyl)-1-(5-trifluoro-methylpyridin-2-yl)-1H-pyrazol-4-ylmethyl]pyrrolidin-3-ol] — within 1.5-fold, 390 nM
- CN1CCN(Cc2cnn(-c3ccc(-c4ccc(F)cc4)cc3)c2-c2cc(Cl)cc(Cl)c2)CC1 [Example 1052, 1-[5-(3,5-Dichlorophenyl)-1-(4′-fluoro-biphenyl-4-yl)-1H-pyrazol-4-ylmethyl]-4-methyl-piperazine] — within 1.5-fold, 400 nM
- OC1CCN(Cc2cnn(-c3ccc(-c4ccccc4)cc3)c2-c2ccccc2F)CC1 [Example 1053, 1-[1-Biphenyl-4-yl-5-(2-fluorophenyl)-1H-pyrazol-4-ylmethyl]piperidin-4-ol] — within 1.5-fold, 430 nM
- CC(C)(C)OC(=O)N1CCC(NCc2cnn(-c3ccc(-c4ccccc4)cc3)c2-c2ccccc2F)C1 (stereo not shown) [Example 1056, tert-Butyl 3-{[1-biphenyl-4-yl-5-(2-fluoro-phenyl)-1H-pyrazol-4-ylmethyl]amino}pyrrolidine-1-carboxylate] — within 1.5-fold, 460 nM
- Fc1ccccc1-c1c(CNC2CCNCC2)cnn1-c1ccc(-c2ccccc2)cc1 [Example 1058, [1-Biphenyl-4-yl-5-(2-fluorophenyl)-1H-pyrazol-4-ylmethyl]piperidin-4-ylamine] — within 1.5-fold, 470 nM
- OCCc1cnn(-c2ccc(-c3ccccc3)cc2)c1-c1ccccc1F [Example 1059, 2-[1-Biphenyl-4-yl-5-(2-fluoro-phenyl)-1H-pyrazol-4-yl]ethanol] — within 1.5-fold, 470 nM
